From article PMC12377721 (2025)

Experiments:
Test in all cases: ITC
Conditions in all cases: 500 mM NaCl, 20 mM MgCl2; 50 mM Tris pH 7.6, 25 °C
[1] = system: 1301b_v1 (DNA, aptamer) CGACGTTTGCGATGAGAACGAAGTTCGAAGGTCG
[2] = system: wild-type 1301b (DNA, aptamer) ACGACGTTTGCGATGAGAAACGTATGGTTTCGAAGGTCGT
[3] = system: 9/10/14/16^OMe (DNA, aptamer, 2'-O-methyl at G9, C10, G14, G16) CGACGTTTGCGATGAGAACGAAGTTCGAAGGTCG

| binding [1] | KD [1] [µM] | SMILES | other results |
| --- | --- | --- | --- |
| no | – | Cc1cn([C@H]2C[C@H](O)[C@@H](COP(=O)(O)OP(=O)(O)OP(=O)(O)O)O2)c(=O)[nH]c1=O | – |
| no | – | Nc1ccn([C@@H]2O[C@H](COP(=O)(O)OP(=O)(O)OP(=O)(O)O)[C@@H](O)[C@H]2O)c(=O)n1 | – |
| no | – | Nc1nc2c(ncn2[C@@H]2O[C@H](COP(=O)(O)OP(=O)(O)OP(=O)(O)O)[C@@H](O)[C@H]2O)c(=O)[nH]1 | – |
| – | 13.2 ± 2.4 | Nc1ncnc2c1ncn2[C@@H]1O[C@H](COP(=O)(O)O)[C@@H](O)[C@H]1O | – |
| – | 4.4 ± 0.3 | Nc1ncnc2c1ncn2[C@@H]1O[C@H](COP(=O)(O)OP(=O)(O)O)[C@@H](O)[C@H]1O | – |
| – | 1.9 ± 0.1 | Nc1ncnc2c1ncn2[C@@H]1O[C@H](COP(=O)(O)OP(=O)(O)OP(=O)(O)O)[C@@H](O)[C@H]1O | KD [2]: 2.7 ± 0.6 µM; KD [3]: 3.8 ± 0.4 µM |
| – | 3.4 ± 0.2 | Nc1ncnc2c1ncn2[C@H]1C[C@H](O)[C@@H](COP(=O)(O)OP(=O)(O)OP(=O)(O)O)O1 | – |
| no | – | O=c1ccn([C@@H]2O[C@H](COP(=O)(O)OP(=O)(O)OP(=O)(O)O)[C@@H](O)[C@H]2O)c(=O)[nH]1 | – |
